Measured values taken from patent US6262084A, “Compounds that inhibit the binding of integrins to their receptors” (Texas Biotechnology Corporation, priority 1999, dated 2001).

Target: T1, α4β1 integrin (Homo sapiens, UniProt P05556+P13612)
T1 construct: Ramos cells fluorescently labeled with calcein; endogenous in cells; host or cells: Ramos cells
Experiment: Inhibition of adhesion of calcein-labeled Ramos cells to CS1 (fibronectin) peptide-conjugated ovalbumin
Assay type: cell-based
Settings: Table 1; for inhibition at 100 µM: Ramos, compound at a concentration of 100 μM, read-out: % A (percent inhibition of cell adhesion); for IC50: dose required to give 50% inhibition, Ramos cell adhesion to CS1-ovalbumin, 30 minutes at 37° C
Protocol: The ability of compounds of the present invention to inhibit binding is described in detail hereinafter in the Examples by a procedure in which a 26-amino acid peptide containing the CS1 sequence of fibroncctin with an N-terminal Cys was coupled to maleimide activated ovalbumin. Ovalbumin and CS1 conjugated ovalbumin were coated onto 96-well polystyrene plates at 5 μg/ml in TBS (50 mM Tris, pH 7.5; 150 mM NaCl) at 4° C. for 16 hours. The plates were washed three times with TBS and blocked with TBS containing 3% BSA at room temperature for 4 hours. Blocked plates were washed three times in binding buffer (TBS; 1 mM MgCl2; 1 mM CaCl2; 1 mM MnCl2) prior to assay. Ramos cells fluorescently labeled with calcein AMC-3099 were resuspended in binding buffer (10^7 cells/ml) and diluted 1:2 with same buffer with or without compound. The cells were added immediately to the wells (2.5×10^5 cells/well) and incubated for 30 minutes at 37° C. Following three washes with binding buffer, adherent cells were lysed and quantitated using a fluorometer.
IC50 is defined as the dose required to give 50% inhibition. The lower the IC50 value and the greater the percentage of inhibition, the more efficient the compound is at prevention of cell adhesion. A stands for inhibition in Table 1, and the percent inhibition indicates the inhibition of cell adhesion when compound is included in the assay at a concentration of 100 μM.

T1 sequence (P13612 34-1032): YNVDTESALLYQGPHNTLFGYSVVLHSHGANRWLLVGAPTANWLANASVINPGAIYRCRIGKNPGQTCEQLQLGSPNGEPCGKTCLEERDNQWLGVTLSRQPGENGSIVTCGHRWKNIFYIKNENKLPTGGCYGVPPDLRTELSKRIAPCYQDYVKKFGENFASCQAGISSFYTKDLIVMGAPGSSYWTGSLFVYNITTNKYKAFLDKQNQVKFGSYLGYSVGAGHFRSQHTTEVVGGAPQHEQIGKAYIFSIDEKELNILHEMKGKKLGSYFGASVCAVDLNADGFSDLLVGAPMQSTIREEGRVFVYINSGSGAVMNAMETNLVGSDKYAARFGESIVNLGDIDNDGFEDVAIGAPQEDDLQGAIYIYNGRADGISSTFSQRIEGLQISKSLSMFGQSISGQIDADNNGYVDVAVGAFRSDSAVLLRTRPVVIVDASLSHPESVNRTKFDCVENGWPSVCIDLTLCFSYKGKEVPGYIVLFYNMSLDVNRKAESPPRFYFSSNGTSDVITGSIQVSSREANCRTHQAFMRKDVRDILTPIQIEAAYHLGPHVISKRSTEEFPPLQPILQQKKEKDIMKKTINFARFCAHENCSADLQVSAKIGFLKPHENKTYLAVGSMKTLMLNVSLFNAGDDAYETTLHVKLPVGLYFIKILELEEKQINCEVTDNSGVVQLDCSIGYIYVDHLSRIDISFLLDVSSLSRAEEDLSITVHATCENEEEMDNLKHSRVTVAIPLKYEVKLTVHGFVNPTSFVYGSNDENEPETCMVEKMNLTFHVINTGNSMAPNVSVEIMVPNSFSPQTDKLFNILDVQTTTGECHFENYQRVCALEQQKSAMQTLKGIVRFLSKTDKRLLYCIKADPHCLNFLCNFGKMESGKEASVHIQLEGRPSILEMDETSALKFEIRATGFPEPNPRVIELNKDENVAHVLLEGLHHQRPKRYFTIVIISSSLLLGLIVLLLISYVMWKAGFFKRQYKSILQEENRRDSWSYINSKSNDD
T1 sequence (P05556 21-798): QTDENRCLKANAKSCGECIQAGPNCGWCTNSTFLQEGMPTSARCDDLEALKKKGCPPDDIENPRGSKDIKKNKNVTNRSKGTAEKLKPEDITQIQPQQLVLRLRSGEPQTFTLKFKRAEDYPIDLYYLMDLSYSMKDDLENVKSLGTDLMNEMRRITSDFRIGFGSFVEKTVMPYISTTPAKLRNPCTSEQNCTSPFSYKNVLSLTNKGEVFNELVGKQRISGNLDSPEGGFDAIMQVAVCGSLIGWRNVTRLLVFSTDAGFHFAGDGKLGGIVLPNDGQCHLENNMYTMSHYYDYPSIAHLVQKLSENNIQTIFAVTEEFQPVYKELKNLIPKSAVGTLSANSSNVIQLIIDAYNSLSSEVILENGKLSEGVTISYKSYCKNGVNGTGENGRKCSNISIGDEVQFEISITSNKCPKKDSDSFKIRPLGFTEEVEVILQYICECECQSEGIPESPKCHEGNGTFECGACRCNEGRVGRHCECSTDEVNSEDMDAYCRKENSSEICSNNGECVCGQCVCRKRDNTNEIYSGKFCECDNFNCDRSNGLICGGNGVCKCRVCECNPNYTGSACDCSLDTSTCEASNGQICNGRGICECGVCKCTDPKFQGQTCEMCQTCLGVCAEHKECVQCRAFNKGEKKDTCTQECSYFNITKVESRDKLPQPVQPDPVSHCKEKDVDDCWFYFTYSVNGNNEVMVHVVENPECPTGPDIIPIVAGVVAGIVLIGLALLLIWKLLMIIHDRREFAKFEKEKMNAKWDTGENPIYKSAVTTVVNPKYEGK

inhibition at 100 µM [%] | IC50 [nM] | Structure (SMILES)
100 | 2 | CSCC[C@@H](CSc1cccc(NC(=O)Nc2ccccc2C)c1)NC(=O)N[C@@H](CC(=O)O)c1ccc2c(c1)OCO2 [(3S)-3-(1,3-benzodioxol-5-yl)-3-{[({(1S)-3-(methylsulfanyl)-1-[({3-[(2-toluidinocarbonyl)amino]phenyl}sulfanyl)methyl]propyl}amino)carbonyl]amino}propanoic acid]
100 | 0.9 | CSCC[C@@H](CSc1ccc(NC(=O)Nc2ccccc2C)cc1)NC(=O)N[C@@H](CC(=O)O)c1ccc2c(c1)OCO2 [(3S)-3-(1,3-benzodioxol-5-yl)-3-{[({(1S)-3-(methylsulfanyl)-1-[({4-[(2-toluidinocarbonyl)amino]phenyl}sulfanyl)methyl]propyl}amino)carbonyl]amino}propanoic acid]
100 | 500 | CSCC[C@@H](CSc1ccc(NS(C)(=O)=O)cc1)NC(=O)N[C@@H](CC(=O)O)c1ccc2c(c1)OCO2 [(3S)-3-(1,3-benzodioxol-5-yl)-3-{[({(1S)-3-(methylsulfanyl)-1-[({4-[(methylsulfonyl)amino]phenyl}sulfanyl)methyl]propyl}amino)carbonyl]amino}propanoic acid]
100 | 300 | O=C(O)C[C@H](NC(=O)N[C@@H](CCSc1ccccc1)CSc1ccccc1)c1ccc2c(c1)OCO2 [(3S)-3-(1,3-benzodioxol-5-yl)-3-{[({(1S)-3-(phenylthio)-1-[(phenylthio)methyl]propyl}amino)carbonyl]amino}propanoic acid]

The next lines start with the compound.

Structure (SMILES) | inhibition at 100 µM [%] | IC50 [nM]
O=C(O)C[C@H](NC(=O)N[C@@H](CSCC1CC1)CSc1ccccc1)c1ccc2c(c1)OCO2 [(3S)-3-(1,3-benzodioxol-5-yl)-3-{[({(1S)-2-[(cyclopropylmethyl)thio]-1-[(phenylthio)methyl]ethyl}amino)carbonyl]amino}propanoic acid] | 100 | 200
CCOC[C@@H](CSc1ccccc1)OC(=O)N[C@@H](CC(=O)O)c1ccc2c(c1)OCO2 [(3S)-3-(1,3-benzodioxol-5-yl)-3-{[({(1S)-2-ethoxy-1-[(phenylthio)methyl]ethyl}oxy)carbonyl]amino}propanoic acid] | 100 | 5000
CC(C)[C@@H](CSCCc1ccccc1)NC(=O)N[C@@H](CC(=O)O)c1ccc2c(c1)OCO2 [(3S)-3-(1,3-benzodioxol-5-yl)-3-{[({(1S)-2-methyl-1-[(phenethylsulfanyl)methyl]propyl}amino)carbonyl]amino}propanoic acid] | 98 | 20000
Cc1ccc(S(=O)(=O)NC[C@@H](CSc2ccccc2)NC(=O)N[C@@H](CC(=O)O)c2ccc3c(c2)OCO3)cc1 [(3S)-3-(1,3-benzodioxol-5-yl)-3-{[({(1S)-2-{[(4-methylphenyl)sulfonyl]amino}-1-[(phenylthio)methyl]ethyl}amino)carbonyl]amino}propanoic acid] | 98 | 10000
CSCC[C@@H](CSc1ccccc1)NC(=S)N[C@@H](CC(=O)O)c1ccc2c(c1)OCO2 [(3S)-3-(1,3-benzodioxol-5-yl)-3-{[({(1S)-3-(methylsulfanyl)-1-[(phenylsulfanyl)methyl]propyl}amino)carbothioyl]amino}propanoic acid] | 100 | 3000
CCCS(=O)(=O)Nc1cccc(SC[C@H](CCSC)NC(=O)N[C@@H](CC(=O)O)c2ccc3c(c2)OCO3)c1 [(3S)-3-(1,3-benzodioxol-5-yl)-3-{[({(1S)-3-(methylthio)-1-[({3-[(propylsulfonyl)amino]phenyl}thio)methyl]propyl}amino)carbonyl]amino}propanoic acid] | 100 | 500
CC(C)C[C@@H](CSc1ccccc1)NC(=O)N[C@@H](CC(=O)O)c1ccc2c(c1)OCO2 [(3S)-3-(1,3-benzodioxol-5-yl)-3-{[({(1S)-3-methyl-1-[(phenylsulfanyl)methyl]butyl}amino)carbonyl]amino}propanoic acid] | 100 | 2000
